Source: ChEMBL document CHEMBL3885881, “DrugMatrix”

Species on record: Rattus norvegicus
Assay: DrugMatrix - Regimen: Daily Repeat
Type: toxicity, organism-based, Sprague-Dawley
Parameters: regimen Daily Repeat, gender Male, age 6-8 weeks
Details: in vivo, po, route oral GAVAGE, vehicle .5 % CMC; for ABSOLUTE BASOPHIL / ABSOLUTE EOSINOPHIL / ABSOLUTE LYMPHOCYTE / ABSOLUTE MONOCYTE / ABSOLUTE SEGMENTED NEUTROPHIL / BASOPHIL / EOSINOPHIL / ERYTHROCYTE COUNT / HEMATOCRIT / HEMOGLOBIN / LEUKOCYTE COUNT / LYMPHOCYTE / MEAN CORPUSCULAR HEMOGLOBIN / MEAN CORPUSCULAR HEMOGLOBIN CONCENTRATION / MEAN CORPUSCULAR VOLUME / MONOCYTE / NEUTROPHIL / NUCLEATED RED BLOOD CELLS / PLATELET COUNT: tissue Blood; for ALANINE AMINOTRANSFERASE / ALBUMIN / ALKALINE PHOSPHATASE / ASPARTATE AMINOTRANSFERASE / BLOOD UREA NITROGEN / CARBON DIOXIDE / CHLORIDE / CHOLESTEROL / CREATINE PHOSPHOKINASE / CREATININE / GLUCOSE / LACTATE DEHYDROGENASE / LIPASE / PHOSPHORUS / POTASSIUM / SODIUM / TOTAL BILIRUBIN / TOTAL PROTEIN / URIC ACID: tissue Plasma
[1] = 44 mg/kg, 120 h, dose level Low, time 5 day
[2] = 439 mg/kg, 72 h, dose level High, time 3 day
[3] = 439 mg/kg, 120 h, dose level High, time 5 day

Compound: Brc1ccccc1 [BROMOBENZENE]
- ABSOLUTE BASOPHIL [1]: 0 CELLS/uL
- ABSOLUTE EOSINOPHIL [1]: 0 CELLS/uL
- ABSOLUTE LYMPHOCYTE [1]: 9552.67 CELLS/uL
- ABSOLUTE MONOCYTE [1]: 143.67 CELLS/uL
- ABSOLUTE SEGMENTED NEUTROPHIL [1]: 903.67 CELLS/uL
- BASOPHIL [1]: 0%
- EOSINOPHIL [1]: 0%
- ERYTHROCYTE COUNT [1]: 5.33 x10E6/uL
- HEMATOCRIT [1]: 32.83%
- HEMOGLOBIN [1]: 12.7 G/DL
- LEUKOCYTE COUNT [1]: 10.6 x10E3/uL
- LYMPHOCYTE [1]: 90%
- MEAN CORPUSCULAR HEMOGLOBIN [1]: 23.83 pg
- MEAN CORPUSCULAR HEMOGLOBIN CONCENTRATION [1]: 38.7 G/DL
- MEAN CORPUSCULAR VOLUME [1]: 61.57 fL
- MONOCYTE [1]: 1.33%
- NEUTROPHIL [1]: 8.67%
- NUCLEATED RED BLOOD CELLS [1]: 0 /100WBC
- PLATELET COUNT [1]: 1057.33 x10E3/uL
- ALANINE AMINOTRANSFERASE [1]: 40.67 u/L
- ALBUMIN [1]: 4.3 G/DL
- ALKALINE PHOSPHATASE [1]: 334.67 u/L
- ASPARTATE AMINOTRANSFERASE [1]: 69.67 u/L
- BLOOD UREA NITROGEN [1]: 14.67 mg/dL
- CARBON DIOXIDE [1]: 26.33 mmol/L
- CHLORIDE [1]: 101.67 MEQ/L
- CHOLESTEROL [1]: 64.33 mg/dL
- CREATINE PHOSPHOKINASE [1]: 162.67 u/L
- CREATININE [1]: 0.24 mg/dL
- GLUCOSE [1]: 160 mg/dL
- LACTATE DEHYDROGENASE [1]: 86.67 u/L
- LIPASE [1]: 9.33 u/L
- PHOSPHORUS [1]: 11.83 mg/dL
- POTASSIUM [1]: 6.35 MEQ/L
- SODIUM [1]: 144.7 MEQ/L
- TOTAL BILIRUBIN [1]: 0.1 mg/dL
- TOTAL PROTEIN [1]: 6.2 G/DL
- URIC ACID [1]: 1.67 mg/dL
- ABSOLUTE BASOPHIL [2]: 0 CELLS/uL
- ABSOLUTE EOSINOPHIL [2]: 46.33 CELLS/uL
- ABSOLUTE LYMPHOCYTE [2]: 10833.67 CELLS/uL
- ABSOLUTE MONOCYTE [2]: 138 CELLS/uL
- ABSOLUTE SEGMENTED NEUTROPHIL [2]: 1815.33 CELLS/uL
- BASOPHIL [2]: 0%
- EOSINOPHIL [2]: 0.33%
- ERYTHROCYTE COUNT [2]: 4.81 x10E6/uL
- HEMATOCRIT [2]: 30.27%
- HEMOGLOBIN [2]: 11.9 G/DL
- LEUKOCYTE COUNT [2]: 12.83 x10E3/uL
- LYMPHOCYTE [2]: 85.33%
- MEAN CORPUSCULAR HEMOGLOBIN [2]: 24.7 pg
- MEAN CORPUSCULAR HEMOGLOBIN CONCENTRATION [2]: 39.3 G/DL
- MEAN CORPUSCULAR VOLUME [2]: 62.83 fL
- MONOCYTE [2]: 1%
- NEUTROPHIL [2]: 13.33%
- NUCLEATED RED BLOOD CELLS [2]: 0.33 /100WBC
- PLATELET COUNT [2]: 1082.33 x10E3/uL
- ALANINE AMINOTRANSFERASE [2]: 59 u/L
- ALBUMIN [2]: 4.17 G/DL
- ALKALINE PHOSPHATASE [2]: 378.33 u/L
- ASPARTATE AMINOTRANSFERASE [2]: 83.67 u/L
- BLOOD UREA NITROGEN [2]: 15 mg/dL
- CARBON DIOXIDE [2]: 29.33 mmol/L
- CHLORIDE [2]: 100.67 MEQ/L
- CHOLESTEROL [2]: 84.67 mg/dL
- CREATINE PHOSPHOKINASE [2]: 171 u/L
- CREATININE [2]: 0.22 mg/dL
- GLUCOSE [2]: 160 mg/dL
- LACTATE DEHYDROGENASE [2]: 172 u/L
- LIPASE [2]: 12 u/L
- PHOSPHORUS [2]: 12.47 mg/dL
- POTASSIUM [2]: 6.1 MEQ/L
- SODIUM [2]: 143.47 MEQ/L
- TOTAL BILIRUBIN [2]: 0.13 mg/dL
- TOTAL PROTEIN [2]: 5.97 G/DL
- URIC ACID [2]: 1.03 mg/dL
- ABSOLUTE BASOPHIL [3]: 0 CELLS/uL
- ABSOLUTE EOSINOPHIL [3]: 0 CELLS/uL
- ABSOLUTE LYMPHOCYTE [3]: 9268 CELLS/uL
- ABSOLUTE MONOCYTE [3]: 132.4 CELLS/uL
- ABSOLUTE SEGMENTED NEUTROPHIL [3]: 919.6 CELLS/uL
- BASOPHIL [3]: 0%
- EOSINOPHIL [3]: 0%
- ERYTHROCYTE COUNT [3]: 5.45 x10E6/uL
- HEMATOCRIT [3]: 32.3%
- HEMOGLOBIN [3]: 12.54 G/DL
- LEUKOCYTE COUNT [3]: 10.32 x10E3/uL
- LYMPHOCYTE [3]: 89.6%
- MEAN CORPUSCULAR HEMOGLOBIN [3]: 23 pg
- MEAN CORPUSCULAR HEMOGLOBIN CONCENTRATION [3]: 38.82 G/DL
- MEAN CORPUSCULAR VOLUME [3]: 59.26 fL
- MONOCYTE [3]: 1.2%
- NEUTROPHIL [3]: 9.2%
- NUCLEATED RED BLOOD CELLS [3]: 0.2 /100WBC
- PLATELET COUNT [3]: 1078.8 x10E3/uL
- ALANINE AMINOTRANSFERASE [3]: 43.2 u/L
- ALBUMIN [3]: 4.4 G/DL
- ALKALINE PHOSPHATASE [3]: 375.2 u/L
- ASPARTATE AMINOTRANSFERASE [3]: 72.8 u/L
- BLOOD UREA NITROGEN [3]: 16.2 mg/dL
- CARBON DIOXIDE [3]: 25.2 mmol/L
- CHLORIDE [3]: 102.4 MEQ/L
- CHOLESTEROL [3]: 77.2 mg/dL
- CREATINE PHOSPHOKINASE [3]: 262.4 u/L
- CREATININE [3]: 0.2 mg/dL
- GLUCOSE [3]: 153.6 mg/dL
- LACTATE DEHYDROGENASE [3]: 118.8 u/L
- LIPASE [3]: 9.6 u/L
- PHOSPHORUS [3]: 12.5 mg/dL
- POTASSIUM [3]: 6.84 MEQ/L
- SODIUM [3]: 144.22 MEQ/L
- TOTAL BILIRUBIN [3]: 0.18 mg/dL
- TOTAL PROTEIN [3]: 6.18 G/DL
- URIC ACID [3]: 1.92 mg/dL
